From US4629781A, “Chemical process for preparing L 17392 (deglucoteicoplanin) and its salts” (Gruppo Lepetit S.p.A., priority 1983, dated 1986)
≈ marks a conversion by molar mass, not a printed value.

Columns and labels:
[1] = Solubility; assay type: physicochemical
[2] = Potentiometric titration profile; assay type: physicochemical; settings: methylcellosolve/water 4:1, titration with 0.01N NaOH after excess of 0.01N HCl
[3] = system: Proteus vulgaris X 19 H ATCC 881; assay: In vitro antibacterial activity, two-fold dilution method in microtiter system (MIC); assay type: cell-based
Protocol: (§1) The in vitro antibacterial activity of deglucoteicoplanin was determined using the two-fold dilution method in microtiter system. Todd-Hewitt broth (Difco) was used for streptococci and Isosensitest broth (Oxoid) for staphylococci and gram-negative bacteria. Overnight broth cultures were diluted so that the final inoculum was about 10^4 colony-forming units per ml (cfu/ml).

[4] = system: Streptococcus pneumoniae UC 41; assay: as above; assay type: cell-based
Protocol: as §1

[5] = system: Escherichia coli SKF 12140; assay: as above; assay type: cell-based
Protocol: as §1

[6] = system: Staphylococcus epidermidis ATCC 12228; assay: as above; assay type: cell-based
Protocol: as §1

[7] = system: Pseudomonas aeruginosa ATCC 10145; assay: as above; assay type: cell-based
Protocol: as §1

[8] = system: Streptococcus pyogenes C 203 SFK 13400; assay: as above; assay type: cell-based
Protocol: as §1

[9] = system: Streptococcus faecalis ATCC 7080; assay: as above; assay type: cell-based
Protocol: as §1

[10] = system: Staphylococcus aureus ATCC 6538; assay: as above; assay type: cell-based; settings: inoculum about 10^4 cfu/ml, 18-24 hours at 37° C.
Protocol: as §1

[11] = system: clinical isolate methicillin-resistant staphylococci (S. aureus, S. epidermidis); assay: In vitro antibacterial activity against methicillin-resistant staphylococci (summary); assay type: cell-based; settings: in words
Protocol: as §1

[12] = system: S. aureus L 1524; assay: MIC against clinical isolate methicillin-resistant staphylococci; assay type: cell-based; design: unit not given here; settings: S. aureus L 1524, clinical isolate methicillin-resistant
Protocol: as §1

[13] = system: S. aureus L 1097; assay: as above; assay type: cell-based; design: unit not given here; settings: S. aureus L 1097, clinical isolate methicillin-resistant
Protocol: as §1

[14] = system: S. epidermidis 1372; assay: as above; assay type: cell-based; design: unit not given here; settings: S. epidermidis 1372, clinical isolate methicillin-resistant
Protocol: as §1

[15] = system: S. aureus L 1526; assay: as above; assay type: cell-based; design: unit not given here; settings: S. aureus L 1526, clinical isolate methicillin-resistant
Protocol: as §1

[16] = system: S. aureus L 1096; assay: as above; assay type: cell-based; design: unit not given here; settings: S. aureus L 1096, clinical isolate methicillin-resistant
Protocol: as §1

[17] = system: S. epidermidis 835; assay: as above; assay type: cell-based; design: unit not given here; settings: S. epidermidis 835, clinical isolate methicillin-resistant
Protocol: as §1

[18] = system: S. epidermidis 1378; assay: as above; assay type: cell-based; design: unit not given here; settings: S. epidermidis 1378, clinical isolate methicillin-resistant
Protocol: as §1

[19] = system: S. epidermidis 785; assay: as above; assay type: cell-based; design: unit not given here; settings: S. epidermidis 785, clinical isolate methicillin-resistant
Protocol: as §1

[20] = system: S. epidermidis 1142; assay: as above; assay type: cell-based; design: unit not given here; settings: S. epidermidis 1142, clinical isolate methicillin-resistant
Protocol: as §1

[21] = system: S. pyogenes; assay: Experimental infection in mice infected with S. pyogenes; assay type: in vivo; settings: subcutaneous administration
[22] = system: Staphylococcus aureus Tour; assay: In vitro antibacterial activity, two-fold dilution method in microtiter system (MIC); assay type: cell-based
Protocol: The in vitro antibacterial activity of deglucoteicoplanin was determined using the two-fold dilution method in microtiter system. Todd-Hewitt broth (Difco) was used for streptococci and Isosensitest broth (Oxoid) for staphylococci and gram-negative bacteria. […]

[23] = system: staphylococci (S. aureus, S. epidermidis); assay: In vitro antibacterial activity against staphylococci (summary); assay type: cell-based; settings: in words
Protocol: as §1

CC(=O)N[C@@H]1[C@@H](O[C@H]2c3ccc(c(Cl)c3)Oc3cc4cc(c3O)Oc3ccc(cc3Cl)C[C@@H]3NC(=O)[C@@H](N)c5ccc(O)c(c5)Oc5cc(O)cc(c5)[C@@H](NC3=O)C(=O)N[C@@H]4C(=O)N[C@@H]3C(=O)N[C@H]2C(=O)N[C@@H](C(=O)O)c2cc(O)cc(O)c2-c2cc3ccc2O)O[C@@H](CO)[C@H](O)[C@H]1O (stereo in doubt) [antibiotic L 17046]
solubility ([1]; in methanol): slightly soluble | solubility ([1]; in n-hexane, ethyl ether and acetone): almost insoluble | solubility ([1]; in water at pH>8.0, in dimethylformamide, dimethylsulfoxide, propyleneglycol and methylcellosolve): freely soluble | pH1/2 value, third titration slope ([2]; five equivalents): 11 | pH1/2 value, first titration slope ([2]; one equivalent): 5.0 | pH1/2 value, second titration slope ([2]; one equivalent): 7.0

N[C@H]1C(=O)N[C@@H]2Cc3ccc(c(Cl)c3)Oc3cc4cc(c3O)Oc3ccc(cc3Cl)[C@@H](O)[C@@H]3NC(=O)[C@H](NC(=O)[C@@H]4NC(=O)[C@@H](NC2=O)c2cc(O)cc(c2)Oc2cc1ccc2O)c1ccc(O)c(c1)-c1c(O)cc(O)cc1[C@@H](C(=O)O)NC3=O [deglucoteicoplanin]
MIC [3]: 50 µg/mL (≈ 41.7 µM) | MIC [4]: 0.05 µg/mL (≈ 0.0417 µM) | MIC [5]: 25 µg/mL (≈ 20.9 µM) | MIC [6]: 0.0125 µg/mL (≈ 0.0104 µM) | MIC [7]: > 100 µg/mL | MIC [8]: 0.05 µg/mL (≈ 0.0417 µM) | MIC [9]: 0.1 µg/mL (≈ 0.0834 µM) | MIC [10]: 0.025 µg/mL (≈ 0.0209 µM) | activity against clinical isolate methicillin-resistant staphylococci [11]: very effective | solubility ([1]; in ethyl alcohol and dimethylformamide): slightly soluble | solubility ([1]; in water at a pH higher than 9 and aqueous methanol, ethanol and acetone): soluble | MIC [12]: 0.1 | MIC [13]: 0.05 | MIC [14]: 0.2 | MIC [15]: 0.05 | MIC [16]: 0.05 | MIC [17]: 0.05 | MIC [18]: 0.05 | MIC [19]: 0.05 | MIC [20]: 0.05 | ED50 [21]: 0.95 mg/kg | MIC ([22]; Inoculum: 10^6 cfu/ml): 0.2 µg/mL (≈ 0.167 µM) | MIC ([22]; in the presence of 30% bovine serum): 0.2 µg/mL | MIC ([22]; inoculum about 10^4 cfu/ml): 0.05 µg/mL (≈ 0.0417 µM) | activity against staphylococci (S. aureus, S. epidermidis) [23]: very active
